{"source": "patent US9326973B2", "about": "“Hepatitis C virus inhibitors” (priority 2012, dated 2016)"}
{"system": "HCV replicon, genotype-1a variant with glutamine 30 changed to glutamate in the NS5A protein", "assay": "microbe, parasite or virus in culture", "type": "cell-based, HCV genotype 1a", "conditions": "HCV replicon genotype 1a Q30E (Q→E) variant; test compound titrated with an NS5A-targeting compound (BMS-790052 fixed at 200 nM); ranking of synergist activity", "text": "The NS5A synergistic inhibitory effect of test compounds can be determined using various amounts of an NS5A-targeting compound with titration of a second compound of interest. […] In one embodiment, the HCV genotype strain can be genotype 1a containing a change at amino acid 30 of the NS5A protein consisting of glutamine to glutamate. The test compound can be chosen from compounds listed above or from others present in the literature.", "units": {"Fold-Synergistic 1a (Q30E)": "fold"}}
{"smiles": "C[C@@H](OC(=O)N(C)C1(C(=O)N[C@H](c2nc(-c3ccc(-c4ccc(-c5c[nH]c([C@@H](NC(=O)C6(N(C)C(=O)O[C@H](C)C(F)(F)F)CC6)C6(C)CC6)n5)cc4)cc3)c[nH]2)C2(C)CC2)CC1)C(F)(F)F", "note": "[Compound L-92]", "Fold-Synergistic 1a (Q30E)": ">100"}
{"smiles": "CC(C)(C)[C@H](NC(=O)C1(NCC(F)(F)F)CC1)c1nc(-c2ccc(-c3ccc(-c4c[nH]c([C@@H](NC(=O)C5(NCC(F)(F)F)CC5)C(C)(C)C)n4)cc3)cc2)c[nH]1", "note": "[Compound L-96]", "Fold-Synergistic 1a (Q30E)": ">100"}
{"smiles": "COC(=O)N[C@@H](C(=O)N[C@H](c1ncc(-c2ccc(-c3ccc(-c4cnc([C@@H](NC(=O)[C@H](NC(=O)OC)C(C)C)C(C)C)o4)cc3)cc2)o1)C(C)C)C(C)C", "note": "[Compound N-1]", "Fold-Synergistic 1a (Q30E)": ">10"}
{"smiles": "COC(=O)N[C@H](C(=O)N[C@H](c1ncc(-c2ccc(C#Cc3ccc(-c4cnc([C@@H](NC(=O)[C@@H](NC(=O)OC)C(C)C)C(C)C)[nH]4)cc3)cc2)[nH]1)C(C)C)C(C)C", "note": "[Compound N-5]", "Fold-Synergistic 1a (Q30E)": ">10"}
{"smiles": "CC(C)CC(=O)N[C@H](c1ncc(-c2ccc(C#Cc3ccc(-c4cnc([C@@H](NC(=O)CC(C)C)C(C)C)[nH]4)cc3)cc2)[nH]1)C(C)C", "note": "[Compound N-6]", "Fold-Synergistic 1a (Q30E)": ">10"}
{"smiles": "COC(=O)N[C@H](C(=O)N[C@H](c1nc(-c2ccc3cc(-c4ccc(-c5cnc([C@@H](NC(=O)[C@@H](NC(=O)OC)C(C)C)C(C)(C)C)[nH]5)cc4)ccc3c2)c[nH]1)C(C)(C)C)C(C)C", "note": "[Compound N-7]", "Fold-Synergistic 1a (Q30E)": "<10"}
{"smiles": "COC(=O)N[C@@H](C(=O)N[C@H](c1nc(-c2ccc3cc(-c4ccc(-c5cnc([C@@H](NC(=O)[C@H](NC(=O)OC)C(C)C)C(C)(C)C)[nH]5)cc4)ccc3c2)c[nH]1)C(C)(C)C)C(C)C", "note": "[Compound N-8]", "Fold-Synergistic 1a (Q30E)": ">10"}
{"smiles": "CC(C)CC(=O)N[C@H](c1nc(-c2ccc3cc(-c4ccc(-c5cnc([C@@H](NC(=O)CC(C)C)C(C)(C)C)[nH]5)cc4)ccc3c2)c[nH]1)C(C)(C)C", "note": "[Compound N-9]", "Fold-Synergistic 1a (Q30E)": ">10"}
{"smiles": "CC(C)CC(=O)NC1(c2nc(-c3ccc(-c4ccc(-c5c[nH]c(C6(NC(=O)CC(C)C)CCC6)n5)cc4)cc3)c[nH]2)CCC1", "note": "[Compound N-11]", "Fold-Synergistic 1a (Q30E)": "<10"}
{"smiles": "CC(C)CC(=O)NC1(c2nc(-c3ccc(-c4ccc(-c5c[nH]c(C6(NC(=O)CC(C)C)CCCC6)n5)cc4)cc3)c[nH]2)CCCC1", "note": "[Compound N-12]", "Fold-Synergistic 1a (Q30E)": "<10"}
{"smiles": "COC(=O)N[C@@H](C(=O)NC1(c2nc(-c3ccc(-c4ccc(-c5c[nH]c(C6(NC(=O)[C@H](NC(=O)OC)C(C)C)CCCC6)n5)cc4)cc3)c[nH]2)CCCC1)C(C)C", "note": "[Compound N-13]", "Fold-Synergistic 1a (Q30E)": "<10"}
{"smiles": "COC(=O)N[C@@H](C(=O)NC1(c2nc(-c3ccc(-c4ccc(-c5c[nH]c(C6(NC(=O)[C@H](NC(=O)OC)C(C)C)CC=CC6)n5)cc4)cc3)c[nH]2)CC=CC1)C(C)C", "note": "[Compound N-14]", "Fold-Synergistic 1a (Q30E)": "<10"}
{"smiles": "COC(=O)N[C@H](C(=O)NC1(c2nc(-c3ccc(-c4ccc(-c5c[nH]c(C6(NC(=O)[C@@H](NC(=O)OC)C(C)C)CC=CC6)n5)cc4)cc3)c[nH]2)CC=CC1)C(C)C", "note": "[Compound N-15]", "Fold-Synergistic 1a (Q30E)": "<10"}
{"smiles": "CC(C)CC(=O)NC1(c2nc(-c3ccc(-c4ccc(-c5c[nH]c(C6(NC(=O)CC(C)C)CC=CC6)n5)cc4)cc3)c[nH]2)CC=CC1", "note": "[Compound N-16]", "Fold-Synergistic 1a (Q30E)": "<10"}
{"smiles": "COC(=O)N[C@@H](C(=O)NC1(c2nc(-c3ccc(-c4ccc(-c5c[nH]c(C6(NC(=O)[C@H](NC(=O)OC)C(C)C)Cc7ccccc7C6)n5)cc4)cc3)c[nH]2)Cc2ccccc2C1)C(C)C", "note": "[Compound N-17]", "Fold-Synergistic 1a (Q30E)": "<10"}
{"smiles": "COC(=O)N[C@H](C(=O)NC1(c2nc(-c3ccc(-c4ccc(-c5c[nH]c(C6(NC(=O)[C@@H](NC(=O)OC)C(C)C)Cc7ccccc7C6)n5)cc4)cc3)c[nH]2)Cc2ccccc2C1)C(C)C", "note": "[Compound N-18]", "Fold-Synergistic 1a (Q30E)": "<10"}
{"smiles": "CC(C)CC(=O)NC1(c2nc(-c3ccc(-c4ccc(-c5c[nH]c(C6(NC(=O)CC(C)C)Cc7ccccc7C6)n5)cc4)cc3)c[nH]2)Cc2ccccc2C1", "note": "[Compound N-19]", "Fold-Synergistic 1a (Q30E)": "<10"}
{"smiles": "COC(=O)N[C@H](C(=O)NC1(c2nc(-c3ccc(-c4ccc(-c5c[nH]c(C6(NC(=O)[C@@H](NC(=O)OC)C(C)C)CC6)n5)cc4)cc3)c[nH]2)CC1)C(C)C", "note": "[Compound N-20]", "Fold-Synergistic 1a (Q30E)": "<10"}
{"smiles": "CC(C)CC(=O)NC1(c2nc(-c3ccc(-c4ccc(-c5c[nH]c(C6(NC(=O)CC(C)C)CC6)n5)cc4)cc3)c[nH]2)CC1", "note": "[Compound N-21]", "Fold-Synergistic 1a (Q30E)": "<10"}
{"smiles": "COC(=O)N[C@@H](C(=O)NC1(c2nc(-c3ccc(-c4ccc(-c5c[nH]c(C6(NC(=O)[C@H](NC(=O)OC)C(C)C)CCCCC6)n5)cc4)cc3)c[nH]2)CCCCC1)C(C)C", "note": "[Compound N-22]", "Fold-Synergistic 1a (Q30E)": ">10"}
{"smiles": "COC(=O)N[C@H](C(=O)NC1(c2nc(-c3ccc(-c4ccc(-c5c[nH]c(C6(NC(=O)[C@@H](NC(=O)OC)C(C)C)CCCCC6)n5)cc4)cc3)c[nH]2)CCCCC1)C(C)C", "note": "[Compound N-23]", "Fold-Synergistic 1a (Q30E)": "<10"}
{"smiles": "CC(C)CC(=O)NC1(c2nc(-c3ccc(-c4ccc(-c5c[nH]c(C6(NC(=O)CC(C)C)CCCCC6)n5)cc4)cc3)c[nH]2)CCCCC1", "note": "[Compound N-24]", "Fold-Synergistic 1a (Q30E)": "<10"}
{"smiles": "COC(=O)N[C@H](C(=O)NC(C)(C)c1nc(-c2ccc(-c3ccc(-c4c[nH]c(C(C)(C)NC(=O)[C@@H](NC(=O)OC)C(C)C)n4)cc3)cc2)c[nH]1)C(C)C", "note": "[Compound N-25]", "Fold-Synergistic 1a (Q30E)": "<10"}
{"smiles": "CC(C)CC(=O)NC(C)(C)c1nc(-c2ccc(-c3ccc(-c4c[nH]c(C(C)(C)NC(=O)CC(C)C)n4)cc3)cc2)c[nH]1", "note": "[Compound N-26]", "Fold-Synergistic 1a (Q30E)": "<10"}
{"smiles": "COC(=O)N[C@@H](C(=O)N[C@@H](CC(C)C)c1nc(-c2ccc(-c3ccc(-c4c[nH]c([C@H](CC(C)C)NC(=O)[C@H](NC(=O)OC)C(C)C)n4)cc3)cc2)c[nH]1)C(C)C", "note": "[Compound N-29]", "Fold-Synergistic 1a (Q30E)": ">10"}
{"smiles": "COC(=O)N[C@H](C(=O)N[C@@H](CC(C)C)c1nc(-c2ccc(-c3ccc(-c4c[nH]c([C@H](CC(C)C)NC(=O)[C@@H](NC(=O)OC)C(C)C)n4)cc3)cc2)c[nH]1)C(C)C", "note": "[Compound N-30]", "Fold-Synergistic 1a (Q30E)": "<10"}
{"smiles": "CC(C)CC(=O)N[C@@H](CC(C)C)c1nc(-c2ccc(-c3ccc(-c4c[nH]c([C@H](CC(C)C)NC(=O)CC(C)C)n4)cc3)cc2)c[nH]1", "note": "[Compound N-31]", "Fold-Synergistic 1a (Q30E)": ">10"}
{"smiles": "CCC(C)[C@H](NC(=O)[C@H](NC(=O)OC)C(C)C)c1nc(-c2ccc(-c3ccc(-c4c[nH]c([C@@H](NC(=O)[C@H](NC(=O)OC)C(C)C)C(C)CC)n4)cc3)cc2)c[nH]1", "note": "(some centres unmarked) [Compound N-32]", "Fold-Synergistic 1a (Q30E)": ">10"}
{"smiles": "CCC(C)[C@H](NC(=O)[C@@H](NC(=O)OC)C(C)C)c1nc(-c2ccc(-c3ccc(-c4c[nH]c([C@@H](NC(=O)[C@@H](NC(=O)OC)C(C)C)C(C)CC)n4)cc3)cc2)c[nH]1", "note": "(some centres unmarked) [Compound N-33]", "Fold-Synergistic 1a (Q30E)": ">10"}
{"smiles": "CCC(C)[C@H](NC(=O)CC(C)C)c1nc(-c2ccc(-c3ccc(-c4c[nH]c([C@@H](NC(=O)CC(C)C)C(C)CC)n4)cc3)cc2)c[nH]1", "note": "(some centres unmarked) [Compound N-34]", "Fold-Synergistic 1a (Q30E)": ">100"}
{"smiles": "COC(=O)N[C@H](C(=O)N[C@H](c1nc(-c2ccc(-c3ccc(-c4c[nH]c([C@@H](NC(=O)[C@@H](NC(=O)OC)C(C)C)C(C)(C)C)n4)cc3)cc2)c[nH]1)C(C)(C)C)C(C)C", "note": "[Compound N-35]", "Fold-Synergistic 1a (Q30E)": ">100"}
{"smiles": "COC(=O)N[C@@H](C(=O)N[C@@H](C)c1nc(-c2ccc(-c3ccc(-c4c[nH]c([C@H](C)NC(=O)[C@H](NC(=O)OC)C(C)C)n4)cc3)cc2)c[nH]1)C(C)C", "note": "[Compound N-37]", "Fold-Synergistic 1a (Q30E)": ">10"}
{"smiles": "COC(=O)N[C@H](C(=O)N[C@@H](C)c1nc(-c2ccc(-c3ccc(-c4c[nH]c([C@H](C)NC(=O)[C@@H](NC(=O)OC)C(C)C)n4)cc3)cc2)c[nH]1)C(C)C", "note": "[Compound N-38]", "Fold-Synergistic 1a (Q30E)": "<10"}
{"smiles": "CC(C)CC(=O)N[C@@H](C)c1nc(-c2ccc(-c3ccc(-c4c[nH]c([C@H](C)NC(=O)CC(C)C)n4)cc3)cc2)c[nH]1", "note": "[Compound N-39]", "Fold-Synergistic 1a (Q30E)": ">10"}
{"smiles": "CC[C@H](NC(=O)[C@H](NC(=O)OC)C(C)C)c1nc(-c2ccc(-c3ccc(-c4c[nH]c([C@H](CC)NC(=O)[C@H](NC(=O)OC)C(C)C)n4)cc3)cc2)c[nH]1", "note": "[Compound N-40]", "Fold-Synergistic 1a (Q30E)": ">100"}
{"smiles": "CC[C@H](NC(=O)[C@@H](NC(=O)OC)C(C)C)c1nc(-c2ccc(-c3ccc(-c4c[nH]c([C@H](CC)NC(=O)[C@@H](NC(=O)OC)C(C)C)n4)cc3)cc2)c[nH]1", "note": "[Compound N-41]", "Fold-Synergistic 1a (Q30E)": ">10"}
{"smiles": "CC[C@H](NC(=O)CC(C)C)c1nc(-c2ccc(-c3ccc(-c4c[nH]c([C@H](CC)NC(=O)CC(C)C)n4)cc3)cc2)c[nH]1", "note": "[Compound N-42]", "Fold-Synergistic 1a (Q30E)": ">100"}
{"smiles": "COC(=O)N[C@@H](C(=O)N[C@H](c1nc(-c2ccc(-c3ccc(-c4c[nH]c([C@@H](NC(=O)[C@H](NC(=O)OC)C(C)C)C5CCCC5)n4)cc3)cc2)c[nH]1)C1CCCC1)C(C)C", "note": "[Compound N-43]", "Fold-Synergistic 1a (Q30E)": ">10"}
{"smiles": "CC(C)(C)C(=O)N[C@H](c1nc(-c2ccc(-c3ccc(-c4c[nH]c([C@@H](NC(=O)C(C)(C)C)C5CCCC5)n4)cc3)cc2)c[nH]1)C1CCCC1", "note": "[Compound N-44]", "Fold-Synergistic 1a (Q30E)": ">100"}
{"smiles": "CC(C)(C)[C@H](NC(=O)C12CC3CC(CC(C3)C1)C2)c1nc(-c2ccc(-c3ccc(-c4c[nH]c([C@@H](NC(=O)C56CC7CC(CC(C7)C5)C6)C(C)(C)C)n4)cc3)cc2)c[nH]1", "note": "[Compound N-62]", "Fold-Synergistic 1a (Q30E)": ">100"}
{"smiles": "CC(C)[C@H](NC(=O)C1(C)CCCCC1)c1nc(-c2ccc3c(c2)Cc2cc(-c4c[nH]c([C@@H](NC(=O)C5(C)CCCCC5)C(C)C)n4)ccc2-3)c[nH]1", "note": "[Compound N-69]", "Fold-Synergistic 1a (Q30E)": ">100"}
